Measurements as given in patent US6770597B2, “Benzohydrazide derivatives as herbicides and desiccant compositions containing them” (Ishihara Sangyo Kaisha, Ltd., priority 2002, dated 2004).

Key:
Format in all cases: in vivo
[1] = tested on: lambsquarters (Chenopodium album, CHEAL); test: Greenhouse herbicide screen, pre-emerge application, phytotoxicity rating; conditions: PRE emergent, 14 days after application, rating scale 0-100
In short: (§1)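 Visual phytotoxicity scored 0–100 at 14 days, where 0 means no damage and 100 all plants dead. Compounds had been applied in acetone by track sprayer at 15–1000 g ai/ha in 187 l/ha.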

[2] = tested on: large crabgrass (Digitaria sanguinalis, DIGSA); test: as above; conditions: PRE emergent, 14 days after application, rating scale 0-100
In short: as §1

[3] = tested on: common ragweed (Ambrosia artemisiifolia L., AMBEL); test: as above; conditions: PRE emergent, 14 days after application, rating scale 0-100
In short: as §1

[4] = tested on: velvetleaf (Abutilon theophrasti, ABUTH); test: as above; conditions: PRE emergent, 14 days after application, rating scale 0-100
In short: as §1

[5] = tested on: johnsongrass (Sorghum halepense, SORHA); test: as above; conditions: PRE emergent, 14 days after application, rating scale 0-100
In short: as §1

[6] = tested on: ivyleaf morningglory (Ipomoea hederacea, IPOHE); test: as above; conditions: PRE emergent, 14 days after application, rating scale 0-100
In short: as §1

[7] = tested on: barnyardgrass (Echinochloa crus-galli, ECHCG); test: as above; conditions: PRE emergent, 14 days after application, rating scale 0-100
In short: as §1

[8] = tested on: cocklebur (Xanthium strumarium, XANST); test: as above; conditions: PRE emergent, 14 days after application, rating scale 0-100
In short: as §1

[9] = tested on: sicklepod (Cassia obtusifolia, CASOB); test: as above; conditions: PRE emergent, 14 days after application, rating scale 0-100
In short: as §1

[10] = tested on: redroot pigweed (Amaranthus retrofiexus, AMARE); test: as above; conditions: PRE emergent, 14 days after application, rating scale 0-100
In short: as §1

[11] = tested on: green foxtail (Setaria viridis, SETVI); test: as above; conditions: PRE emergent, 14 days after application, rating scale 0-100
In short: as §1

[12] = tested on: field corn (Zea mays L., var. Dekalb 535, CORN); test: Greenhouse herbicide screen, pre-emerge application, crop damage rating; conditions: PRE emergent, 14 days after application, rating scale 0-100
In short: as §1

[13] = tested on: upland rice (Oryza sp., var.Cocodrie, RICE); test: as above; conditions: PRE emergent, 14 days after application, rating scale 0-100
In short: as §1

[14] = tested on: lambsquarters (Chenopodium album, CHEAL); test: Greenhouse herbicide screen, post-emerge application, phytotoxicity rating; conditions: POST emergent, 14 days after application, scale 0-100
In short: as §1

[15] = tested on: large crabgrass (Digitaria sanguinalis, DIGSA); test: as above; conditions: POST emergent, 14 days after application, scale 0-100
In short: as §1

[16] = tested on: common ragweed (Ambrosia artemisiifolia L., AMBEL); test: as above; conditions: POST emergent, 14 days after application, scale 0-100
In short: as §1

[17] = tested on: velvetleaf (Abutilon theophrasti, ABUTH); test: as above; conditions: POST emergent, 14 days after application, scale 0-100
In short: as §1

[18] = tested on: johnsongrass (Sorghum halepense, SORHA); test: as above; conditions: POST emergent, 14 days after application, scale 0-100
In short: as §1

[19] = tested on: ivyleaf morningglory (Ipomoea hederacea, IPOHE); test: as above; conditions: POST emergent, 14 days after application, scale 0-100
In short: as §1

[20] = tested on: barnyardgrass (Echinochloa crus-galli, ECHCG); test: as above; conditions: POST emergent, 14 days after application, scale 0-100
In short: as §1

[21] = tested on: cocklebur (Xanthium strumarium, XANST); test: as above; conditions: POST emergent, 14 days after application, scale 0-100
In short: as §1

[22] = tested on: sicklepod (Cassia obtusifolia, CASOB); test: as above; conditions: POST emergent, 14 days after application, scale 0-100
In short: as §1

[23] = tested on: redroot pigweed (Amaranthus retrofiexus, AMARE); test: as above; conditions: POST emergent, 14 days after application
In short: as §1

[24] = tested on: green foxtail (Setaria viridis, SETVI); test: as above; conditions: POST emergent, 14 days after application, scale 0-100
In short: as §1

[25] = tested on: field corn (Zea mays L., var. Dekalb 535, CORN); test: Greenhouse herbicide screen, post-emerge application, crop damage rating; conditions: POST emergent, 14 days after application, scale 0-100
In short: as §1

[26] = tested on: upland rice (Oryza sp., var.Cocodrie, RICE); test: as above; conditions: POST emergent, 14 days after application, scale 0-100
In short: as §1

CC1CCCC(C)N1N=C(OC(=O)C(Cl)Cl)c1cc(-n2c(=O)cc(C(F)(F)F)n(C)c2=O)c(F)cc1Cl (stereo not shown) [Compound 4-8]
phytotoxicity rating CHEAL ([1]; 63 g ai/ha): 100 | phytotoxicity rating CHEAL ([1]; 250 g ai/ha): 100 | phytotoxicity rating DIGSA ([2]; 63 g ai/ha): 50 | phytotoxicity rating DIGSA ([2]; 250 g ai/ha): 99 | phytotoxicity rating AMBEL ([3]; 63 g ai/ha): 60 | phytotoxicity rating AMBEL ([3]; 250 g ai/ha): 99 | phytotoxicity rating ABUTH ([4]; 63 g ai/ha): 100 | phytotoxicity rating ABUTH ([4]; 250 g ai/ha): 100 | phytotoxicity rating SORHA ([5]; 63 g ai/ha): 0 | phytotoxicity rating SORHA ([5]; 250 g ai/ha): 80 | phytotoxicity rating IPOHE ([6]; 63 g ai/ha): 95 | phytotoxicity rating IPOHE ([6]; 250 g ai/ha): 100 | phytotoxicity rating ECHCG ([7]; 63 g ai/ha): 0 | phytotoxicity rating ECHCG ([7]; 250 g ai/ha): 15 | phytotoxicity rating XANST ([8]; 63 g ai/ha): 30 | phytotoxicity rating XANST ([8]; 250 g ai/ha): 60 | phytotoxicity rating CASOB ([9]; 63 g ai/ha): 60 | phytotoxicity rating CASOB ([9]; 250 g ai/ha): 90 | phytotoxicity rating AMARE ([10]; 63 g ai/ha): 100 | phytotoxicity rating AMARE ([10]; 250 g ai/ha): 100 | phytotoxicity rating SETVI ([11]; 63 g ai/ha): 65 | phytotoxicity rating SETVI ([11]; 250 g ai/ha): 100 | crop damage rating CORN ([12]; 63 g ai/ha): 0 | crop damage rating CORN ([12]; 250 g ai/ha): 50 | crop damage rating RICE ([13]; 63 g ai/ha): 0 | crop damage rating RICE ([13]; 250 g ai/ha): 0 | phytotoxicity rating CHEAL ([14]; 63 g ai/ha): 100 | phytotoxicity rating CHEAL ([14]; 250 g ai/ha): 100 | phytotoxicity rating DIGSA ([15]; 63 g ai/ha): 0 | phytotoxicity rating DIGSA ([15]; 250 g ai/ha): 75 | phytotoxicity rating AMBEL ([16]; 63 g ai/ha): 80 | phytotoxicity rating AMBEL ([16]; 250 g ai/ha): 100 | phytotoxicity rating ABUTH ([17]; 63 g ai/ha): 100 | phytotoxicity rating ABUTH ([17]; 250 g ai/ha): 100 | phytotoxicity rating SORHA ([18]; 63 g ai/ha): 10 | phytotoxicity rating SORHA ([18]; 250 g ai/ha): 65 | phytotoxicity rating IPOHE ([19]; 63 g ai/ha): 100 | phytotoxicity rating IPOHE ([19]; 250 g ai/ha): 100 | phytotoxicity rating ECHCO ([20]; 63 g ai/ha): 70 | phytotoxicity rating ECHCO ([20]; 250 g ai/ha): 90 | phytotoxicity rating XANST ([21]; 63 g ai/ha): 100 | phytotoxicity rating XANST ([21]; 250 g ai/ha): 100 | phytotoxicity rating CASOB ([22]; 63 g ai/ha): 70 | phytotoxicity rating CASOB ([22]; 250 g ai/ha): 75 | phytotoxicity rating AMARE ([23]; 63 g ai/ha, scale 0-100 (0 no damage, 100 complete death)): 100 | phytotoxicity rating AMARE ([23]; 250 g ai/ha, scale 0-100): 100 | phytotoxicity rating SETVI ([24]; 63 g ai/ha): 15 | phytotoxicity rating SETVI ([24]; 250 g ai/ha): 60 | crop damage rating CORN ([25]; 63 g ai/ha): 90 | crop damage rating CORN ([25]; 250 g ai/ha): 100 | crop damage rating RICE ([26]; 63 g ai/ha): 0 | crop damage rating RICE ([26]; 250 g ai/ha): 15
